# Assay results published in patent US20230265151A1, “GIP/GLP1 CO-AGONIST COMPOUNDS” (priority 2020, published 2023).
# Read-outs that look alike come from different tables or passages of the source. *1 amine or outer side, *2 acyl side, *3 side chain or, on linkers, in order; H or OH if unused. Where a SMILES comes first, the peptide text is derived from it. Side-chain parts run from the residue outwards. [ ]: non-standard residue; d: D form. The star is where a group is joined. αMePhe(2-F) = C[C@](N)(Cc1ccccc1F)C(=O)O; γGlu = O=C(O)[C@H](CCC(=O)[*:2])N[*:1]; C14 diacid = O=C(O)CCCCCCCCCCCCC(=O)*; αMeY = C[C@](N)(Cc1ccc(O)cc1)C(=O)O; 4Pal = N[C@@H](Cc1ccncc1)C(=O)O; αMeL = CC(C)C[C@](C)(N)C(=O)O; Orn = NCCC[C@H](N)C(=O)O; AEEA = NCCOCCOCC(=O)O; Aib = CC(C)(N)C(=O)O
# Key:
# [1] = biological target: T1, human GLP-1 receptor (hGLP-1R) (Homo sapiens, UniProt P43220); test: [125I]-GLP-1 binding, SPA with membranes of HEK293 cells expressing hGLP-1R
# T1 construct: expressed in transfected cells; crude membranes
# T1 sequence (P43220 24-463): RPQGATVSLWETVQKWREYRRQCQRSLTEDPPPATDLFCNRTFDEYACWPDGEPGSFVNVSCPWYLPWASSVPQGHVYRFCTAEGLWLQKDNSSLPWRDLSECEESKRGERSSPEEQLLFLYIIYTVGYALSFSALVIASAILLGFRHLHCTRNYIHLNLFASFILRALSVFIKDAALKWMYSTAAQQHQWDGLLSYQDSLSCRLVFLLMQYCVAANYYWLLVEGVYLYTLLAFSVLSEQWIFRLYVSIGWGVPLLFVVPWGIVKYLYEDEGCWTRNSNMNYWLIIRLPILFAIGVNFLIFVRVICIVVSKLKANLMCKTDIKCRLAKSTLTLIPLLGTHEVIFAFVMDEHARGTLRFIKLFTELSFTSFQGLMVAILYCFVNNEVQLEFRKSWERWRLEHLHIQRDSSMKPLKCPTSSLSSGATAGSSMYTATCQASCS
# hGIPR = biological target: T2, hGIPR (Homo sapiens, UniProt P48546); test: Functional cAMP formation (HTRF) in HEK-293 clonal cells expressing hGIPR, 0.1% bovine casein, without or with 1.0% human serum albumin; format: cell-based; details: for Emax: percent of maximal response to GIP(1-42)NH2; for EC50: cAMP
# T2 construct: expressed in transfected cells
# T2 sequence (P48546 22-466): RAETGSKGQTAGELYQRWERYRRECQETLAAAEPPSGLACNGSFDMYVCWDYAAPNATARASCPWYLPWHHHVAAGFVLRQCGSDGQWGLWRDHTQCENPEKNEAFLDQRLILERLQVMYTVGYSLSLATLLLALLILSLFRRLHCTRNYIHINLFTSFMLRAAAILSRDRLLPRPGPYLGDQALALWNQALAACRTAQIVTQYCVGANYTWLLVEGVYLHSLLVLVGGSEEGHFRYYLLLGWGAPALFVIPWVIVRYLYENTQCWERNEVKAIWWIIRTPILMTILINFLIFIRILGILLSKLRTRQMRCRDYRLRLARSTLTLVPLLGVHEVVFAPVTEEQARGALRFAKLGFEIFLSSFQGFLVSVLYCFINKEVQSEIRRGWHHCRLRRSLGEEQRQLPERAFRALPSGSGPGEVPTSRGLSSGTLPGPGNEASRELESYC
# Method in brief: (§1)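 Readings of the HTRF 665/620 nm ratio, which falls as cAMP rises, were converted to nM cAMP using a standard curve after 30 min peptide exposure at 37° C.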
# hGCGR = biological target: T3, hGCGR (Homo sapiens, UniProt P47871); test: Functional cAMP formation (HTRF) in HEK-293 clonal cells expressing hGCGR, 0.1% bovine casein, without or with 1.0% human serum albumin; format: cell-based; details: cAMP, 37° C.
# T3 construct: expressed in transfected cells
# T3 sequence (P47871 26-477): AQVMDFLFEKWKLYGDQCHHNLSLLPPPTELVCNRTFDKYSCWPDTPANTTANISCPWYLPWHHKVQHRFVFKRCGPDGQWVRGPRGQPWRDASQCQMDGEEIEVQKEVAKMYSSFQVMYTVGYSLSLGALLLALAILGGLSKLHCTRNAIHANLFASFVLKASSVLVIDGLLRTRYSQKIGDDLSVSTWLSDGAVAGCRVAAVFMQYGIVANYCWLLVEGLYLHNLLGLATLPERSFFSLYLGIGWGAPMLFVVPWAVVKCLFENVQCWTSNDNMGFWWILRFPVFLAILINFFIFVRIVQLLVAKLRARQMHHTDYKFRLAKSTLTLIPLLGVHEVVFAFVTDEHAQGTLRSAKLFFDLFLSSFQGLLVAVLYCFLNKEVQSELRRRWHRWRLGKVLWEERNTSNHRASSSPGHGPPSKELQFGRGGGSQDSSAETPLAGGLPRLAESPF
# Method in brief: as §1
# hGLP-1R = hGLP-1R (Homo sapiens, UniProt P43220); test: Functional cAMP formation (HTRF) in HEK-293 clonal cells expressing hGLP-1R, 0.1% bovine casein, without or with 1.0% human serum albumin; format: cell-based; set-up: expressed in transfected cells; details: for Emax: percent of maximal response to GLP-1(7-36)NH2; for EC50: cAMP, 0.1% bovine casein (no human serum albumin), geometric mean
# Sequence of hGLP-1R (P43220 24-463): as the sequence (P43220 24-463) above
# Method in brief: as §1
# [2] = human GLP-1R, geometric mean (SEM, n), read-out: Binding Affinity Ki, nM (SEM, n) hGLP-1R
# [3] = 37° C., 0.1% bovine casein (no human serum albumin), geometric mean, read-out: hGIPR EC50, nM (SEM, n)
# [4] = 0.1% bovine casein (no human serum albumin), geometric mean, read-out: hGCGR EC50, nM (SEM, n)
# [5] = 0.1% bovine casein and 1.0% human serum albumin, geometric mean (SEM, n), read-out: hGCGR EC50, nM (SEM, n)
# [6] = HEK293, cAMP, 37° C., 0.1% bovine casein, arithmetic mean, read-out: hGLP-1R Emax, % ± SEM
# [7] = 37° C., read-out: hGLP-1R EC50, nM (SEM, n)
# [8] = HEK293, read-out: hGIPR Emax, % ± SEM, cAMP, 37° C., 0.1% bovine casein and 1.0% human serum albumin
# [9] = hGIPR EC50, nM (SEM, n), 37° C., 0.1% bovine casein (no human serum albumin), geometric mean
# [10] = hGCGR EC50, nM (SEM, n), 0.1% bovine casein (no human serum albumin), geometric mean
# [11] = hGCGR EC50, nM (SEM, n), 0.1% bovine casein and 1.0% human serum albumin, geometric mean (SEM, n)
# [12] = HEK293, read-out: hGLP-1R Emax, % ± SEM, cAMP, 37° C., 0.1% bovine casein and 1.0% human serum albumin
# [13] = hGLP-1R EC50, nM (SEM, n), 37° C.
SMILES,"Ki [1, 2]","Emax (hGIPR; HEK293, cAMP, 37° C., 0.1% bovine casein and 1.0% human serum albumin, read-out: hGIPR Emax, % ± SEM)","Emax (hGIPR; HEK293, cAMP, 37° C., 0.1% bovine casein, arithmetic mean, read-out: hGIPR Emax, % ± SEM)",EC50 (hGIPR; [3]),"EC50 (hGIPR; 37° C., 0.1% bovine casein and 1.0% human serum albumin, geometric mean (SEM, n), read-out: hGIPR EC50, nM (SEM, n))",EC50 (hGCGR; [4]),EC50 (hGCGR; [5]),"Emax (hGLP-1R; HEK293, cAMP, 37° C., 0.1% bovine casein and 1.0% human serum albumin, read-out: hGLP-1R Emax, % ± SEM)",Emax (hGLP-1R; [6]),EC50 (hGLP-1R; [7]),Ki [1],Emax (hGIPR; [8]),"Emax (hGIPR; HEK293, read-out: hGIPR Emax, % ± SEM, cAMP, 37° C., 0.1% bovine casein, arithmetic mean)",EC50 (hGIPR; [9]),EC50 (hGCGR; [10]),EC50 (hGCGR; [11]),Emax (hGLP-1R; [12]),EC50 (hGLP-1R; [13]),"Emax (hGLP-1R; HEK293, read-out: hGLP-1R Emax, % ± SEM, cAMP, 37° C., 0.1% bovine casein, arithmetic mean)"
CC[C@H](C)[C@H](NC(=O)[C@H](CC(C)C)NC(=O)[C@](C)(Cc1ccc(O)cc1)NC(=O)[C@H](CCCCNC(=O)COCCOCCNC(=O)COCCOCCNC(=O)CC[C@H](NC(=O)CCCCCCCCCCCCC(=O)O)C(=O)O)NC(=O)[C@@H](NC(=O)[C@H](Cc1ccccc1)NC(=O)[C@H](CCCN)NC(=O)C(C)(C)NC(=O)[C@H](CCC(N)=O)NC(=O)[C@H](C)NC(=O)[C@H](CCC(N)=O)NC(=O)[C@H](CCCN)NC(=O)[C@H](CC(=O)O)NC(=O)[C@H](CC(C)C)NC(=O)[C@](C)(CC(C)C)NC(=O)CNC(=O)C(C)(C)NC(=O)[C@H](Cc1ccncc1)NC(=O)[C@H](CC(=O)O)NC(=O)[C@H](CO)NC(=O)[C@@H](NC(=O)[C@](C)(Cc1ccccc1F)NC(=O)[C@@H](NC(=O)CNC(=O)[C@H](CCC(=O)O)NC(=O)C(C)(C)NC(=O)[C@@H](N)Cc1ccc(O)cc1)[C@@H](C)O)[C@@H](C)O)[C@@H](C)CC)C(=O)N[C@@H](CCCCNC(=O)COCCOCCNC(=O)COCCOCCNC(=O)CC[C@H](NC(=O)CCCCCCCCCCCCC(=O)O)C(=O)O)C(=O)NCC(=O)NCC(=O)N1CCC[C@H]1C(=O)N[C@@H](CO)C(=O)N[C@@H](CO)C(=O)NCC(=O)N[C@@H](C)C(=O)N1CCC[C@H]1C(=O)N1CCC[C@H]1C(=O)N1CCC[C@H]1C(=O)N[C@@H](CO)C(N)=O [Example 441] (H-Y[Aib]EGT[αMePhe(2-F)]TSD[4Pal][Aib]G[αMeL]LD[Orn]QAQ[Aib][Orn]FIK([AEEA-AEEA-γGlu-C14 diacid])[αMeY]LIK([AEEA-AEEA-γGlu-C14 diacid])GGPSSGAPPPS-NH2),0.386 nM,83.8%,97.2%,0.0174 nM,1.38 nM,> 9950 nM,> 9950 nM,111%,110%,0.134 nM,,,,,,,,,
CC[C@H](C)[C@H](NC(=O)[C@H](CC(C)C)NC(=O)[C@](C)(Cc1ccc(O)cc1)NC(=O)[C@H](CCCCNC(=O)CCOCCOCCOCCOCCNC(=O)CC[C@H](NC(=O)CCCCCCCCCCCCC(=O)O)C(=O)O)NC(=O)[C@@H](NC(=O)[C@H](Cc1ccccc1)NC(=O)[C@H](CCCN)NC(=O)C(C)(C)NC(=O)[C@H](CCC(N)=O)NC(=O)[C@H](C)NC(=O)[C@H](CCC(N)=O)NC(=O)[C@H](CCCN)NC(=O)[C@H](CC(=O)O)NC(=O)[C@H](CC(C)C)NC(=O)[C@](C)(CC(C)C)NC(=O)[C@@H](NC(=O)C(C)(C)NC(=O)[C@H](Cc1ccncc1)NC(=O)[C@H](CC(=O)O)NC(=O)[C@H](CO)NC(=O)[C@@H](NC(=O)[C@](C)(Cc1ccccc1F)NC(=O)[C@@H](NC(=O)CNC(=O)[C@H](CCC(=O)O)NC(=O)C(C)(C)NC(=O)[C@@H](N)Cc1ccc(O)cc1)[C@@H](C)O)[C@@H](C)O)[C@@H](C)CC)[C@@H](C)CC)C(=O)N[C@@H](CCCCNC(=O)CCOCCOCCOCCOCCNC(=O)CC[C@H](NC(=O)CCCCCCCCCCCCC(=O)O)C(=O)O)C(=O)NCC(=O)NCC(=O)N1CCC[C@H]1C(=O)N[C@@H](CO)C(=O)N[C@@H](CO)C(=O)NCC(=O)N[C@@H](C)C(=O)N1CCC[C@H]1C(=O)N1CCC[C@H]1C(=O)N1CCC[C@H]1C(=O)N[C@@H](CO)C(N)=O [Example 457],0.252 nM,,,0.0106 nM,,> 9950 nM,> 9950 nM,,119%,0.185 nM,,,,,,,,,
CC[C@H](C)[C@H](NC(=O)[C@H](CC(C)C)NC(=O)[C@](C)(Cc1ccc(O)cc1)NC(=O)[C@H](CCCCNC(=O)CCOCCOCCOCCOCCNC(=O)CC[C@H](NC(=O)CCCCCCCCCOc1ccc(C(=O)O)cc1)C(=O)O)NC(=O)[C@@H](NC(=O)[C@H](Cc1ccccc1)NC(=O)[C@H](CCCN)NC(=O)C(C)(C)NC(=O)[C@H](CCC(N)=O)NC(=O)[C@H](C)NC(=O)[C@H](CCC(N)=O)NC(=O)[C@H](CCCN)NC(=O)[C@H](CC(=O)O)NC(=O)[C@H](CC(C)C)NC(=O)[C@](C)(CC(C)C)NC(=O)[C@@H](NC(=O)C(C)(C)NC(=O)[C@H](Cc1ccncc1)NC(=O)[C@H](CC(=O)O)NC(=O)[C@H](CO)NC(=O)[C@@H](NC(=O)[C@](C)(Cc1ccccc1F)NC(=O)[C@@H](NC(=O)CNC(=O)[C@H](CCC(=O)O)NC(=O)C(C)(C)NC(=O)[C@@H](N)Cc1ccc(O)cc1)[C@@H](C)O)[C@@H](C)O)[C@@H](C)CC)[C@@H](C)CC)C(=O)N[C@@H](CCCCNC(=O)CCOCCOCCOCCOCCNC(=O)CC[C@H](NC(=O)CCCCCCCCCOc1ccc(C(=O)O)cc1)C(=O)O)C(=O)NCC(=O)NCC(=O)N1CCC[C@H]1C(=O)N[C@@H](CO)C(=O)N[C@@H](CO)C(=O)NCC(=O)N[C@@H](C)C(=O)N1CCC[C@H]1C(=O)N1CCC[C@H]1C(=O)N1CCC[C@H]1C(=O)N[C@@H](CO)C(N)=O [Example 461],,,,,,,,,,,0.14 nM,98.5%,100%,0.0103 nM,> 10100 nM,> 10100 nM,105%,0.173 nM,
CC[C@H](C)[C@H](NC(=O)[C@H](CC(C)C)NC(=O)[C@](C)(Cc1ccc(O)cc1)NC(=O)[C@H](CCCCNC(=O)COCCOCCNC(=O)COCCOCCNC(=O)[C@H]1CC[C@H](CNC(=O)CC[C@H](NC(=O)CCCCCCCCCOc2ccc(C(=O)O)cc2)C(=O)O)CC1)NC(=O)[C@@H](NC(=O)[C@H](Cc1ccccc1)NC(=O)[C@H](CCCN)NC(=O)C(C)(C)NC(=O)[C@H](CCC(N)=O)NC(=O)[C@H](C)NC(=O)[C@H](CCC(N)=O)NC(=O)[C@H](CCCN)NC(=O)[C@H](CC(=O)O)NC(=O)[C@H](CC(C)C)NC(=O)[C@](C)(CC(C)C)NC(=O)[C@@H](NC(=O)C(C)(C)NC(=O)[C@H](Cc1ccncc1)NC(=O)[C@H](CC(=O)O)NC(=O)[C@H](CO)NC(=O)[C@@H](NC(=O)[C@](C)(Cc1ccccc1F)NC(=O)[C@@H](NC(=O)CNC(=O)[C@H](CCC(=O)O)NC(=O)C(C)(C)NC(=O)[C@@H](N)Cc1ccc(O)cc1)[C@@H](C)O)[C@@H](C)O)[C@@H](C)CC)[C@@H](C)CC)C(=O)N[C@@H](CCCCNC(=O)COCCOCCNC(=O)COCCOCCNC(=O)[C@H]1CC[C@H](CNC(=O)CC[C@H](NC(=O)CCCCCCCCCOc2ccc(C(=O)O)cc2)C(=O)O)CC1)C(=O)NCC(=O)NCC(=O)N1CCC[C@H]1C(=O)N[C@@H](CO)C(=O)N[C@@H](CO)C(=O)NCC(=O)N[C@@H](C)C(=O)N1CCC[C@H]1C(=O)N1CCC[C@H]1C(=O)N1CCC[C@H]1C(=O)N[C@@H](CO)C(N)=O [Example 471],,,,,,,,,,,0.197 nM,90.1%,,0.0107 nM,> 9950 nM,> 9950 nM,110%,0.143 nM,112%
